Experimental data taken from patent US20260256792A1, “TREATMENT OF CHRONIC SPONTANEOUS URTICARIA BY ADMINISTERING (R)-2-[3-[4-AMINO-3-(2-FLUORO-4-PHENOXY-PHENYL)PYRAZOLO[3,4-D]PYRIMIDIN-1-YL]PIPERIDINE-1-CARBONYL]-4-METHYL-4-[4-(OXETAN-3-YL)PIPERAZIN-1-YL]PENT-2-ENENITRILE” (priority 2023, published 2026).

Test system: moderate-to-severe chronic spontaneous urticaria (CSU)
Experiment: Phase 2 CSU study: itch severity score over 7 days (ISS7)
Type: in vivo, human
Settings: 400 mg BID; for Change from Baseline in ISS7 at Week 12, LS Mean / Change from Baseline in ISS7 at Week 12, LS Mean Diff vs. placebo / Change from Baseline in ISS7 at Week 12, Mean: Omalizumab-naïve population
Excerpt: The study comprises a 12 week, randomized, double-blind, placebo-controlled, multi-center, dose-ranging efficacy and safety phase, followed by a 40 week open label extension (OLE) phase (see FIG. 1). The study consists of three phases and an optional OLE phase. […] Clinically, CSU is characterized by the spontaneous and recurrent appearance of pruritic hives. The proposed primary endpoints were the UAS7 at Week 12 in EU and EU reference countries and the ISS7 in the US. Regardless of where a participant was from, all assessments were the same. The UAS7 score is a composite score containing both the HSS7 and the ISS7. This allowed a global assessment of the two key components of urticaria: hives and itch. […] The UAS is a validated PRO measure. […] The daily UAS scores range from 0 to 6 point/day. […] Patients were to complete the UAS using the e-diary. […] The following secondary endpoints were to be analyzed using the same approach as for the primary endpoint: • Change from baseline in UAS7 at Week 4 • Change from baseline in UAS7 at Week 12 (for US and US reference countries) • Change from baseline in ISS7 at Week 12 (except US and US reference countries) • Change from baseline in HSS7 at Week 12

[1] = Baseline Eosinophils (10^9/L) <0.150
[2] = Baseline Eosinophils (10^9/L) <0.165 (Median)
[3] = Baseline Eosinophils (10^9/L) <0.3
[4] = Baseline Eosinophils (10^9/L) ≥0.150
[5] = Baseline Eosinophils (10^9/L) ≥0.165 (Median)
[6] = Baseline Eosinophils (10^9/L) ≥0.3
[7] = Baseline H1-antihistamines dose 1-fold
[8] = Baseline H1-antihistamines dose 2 to 4-fold standard dose
[9] = Baseline Total IgE (IU/mL) <100
[10] = Baseline Total IgE (IU/mL) <300
[11] = Baseline Total IgE (IU/mL) ≥100
[12] = Baseline Total IgE (IU/mL) ≥300
[13] = Duration of disease (years) 2-10
[14] = Duration of disease (years) >10

## CC(C)(C=C(C#N)C(=O)N1CCC[C@@H](n2nc(-c3ccc(Oc4ccccc4)cc3F)c3c(N)ncnc32)C1)N1CCN(C2COC2)CC1 [rilzabrutinib, (R)-2-[3-[4-amino-3-(2-fluoro-4-phenoxy-phenyl)pyrazolo[3,4-d]pyrimidin-1-yl]piperidine-1-carbonyl]-4-methyl-4-[4-(oxetan-3-yl)piperazin-1-yl]pent-2-enenitrile]
Age group (years) <44 (Median)
  Change from Baseline in ISS7 at Week 12, LS Mean: −7.05
  Change from Baseline in ISS7 at Week 12, LS Mean Diff vs. placebo: −2.58
  Change from Baseline in ISS7 at Week 12, Mean: −5.97
Age group (years) <65
  Change from Baseline in ISS7 at Week 12, LS Mean: −7.37
  Change from Baseline in ISS7 at Week 12, LS Mean Diff vs. placebo: −1.71
  Change from Baseline in ISS7 at Week 12, Mean: −7.17
Age group (years) ≥44 (Median)
  Change from Baseline in ISS7 at Week 12, LS Mean: −8.10
  Change from Baseline in ISS7 at Week 12, LS Mean Diff vs. placebo: −1.50
  Change from Baseline in ISS7 at Week 12, Mean: −8.62
Age group (years) ≥65
  Change from Baseline in ISS7 at Week 12, Mean: −13.00
Baseline BHRA BHRA+
  Change from Baseline in ISS7 at Week 12, LS Mean: −8.42
  Change from Baseline in ISS7 at Week 12, LS Mean Diff vs. placebo: −3.03
  Change from Baseline in ISS7 at Week 12, Mean: −9.57
Baseline BHRA BHRA−
  Change from Baseline in ISS7 at Week 12, LS Mean: −6.59
  Change from Baseline in ISS7 at Week 12, Mean: −6.75
Baseline BMI (kg/m^2) ≥30
  Change from Baseline in ISS7 at Week 12, LS Mean Diff vs. placebo: −0.57
[1]
  Change from Baseline in ISS7 at Week 12, LS Mean: −6.93
  Change from Baseline in ISS7 at Week 12, LS Mean Diff vs. placebo: −0.15
[2]
  Change from Baseline in ISS7 at Week 12, LS Mean: −7.37
  Change from Baseline in ISS7 at Week 12, LS Mean Diff vs. placebo: −0.86
  Change from Baseline in ISS7 at Week 12, Mean: −5.92
[3]
  Change from Baseline in ISS7 at Week 12, LS Mean: −7.78
  Change from Baseline in ISS7 at Week 12, LS Mean Diff vs. placebo: −2.31
  Change from Baseline in ISS7 at Week 12, Mean: −7.62
[4]
  Change from Baseline in ISS7 at Week 12, LS Mean: −7.91
  Change from Baseline in ISS7 at Week 12, LS Mean Diff vs. placebo: −3.92
[5]
  Change from Baseline in ISS7 at Week 12, LS Mean: −7.62
  Change from Baseline in ISS7 at Week 12, LS Mean Diff vs. placebo: −3.53
  Change from Baseline in ISS7 at Week 12, Mean: −8.88
[6]
  Change from Baseline in ISS7 at Week 12, LS Mean: −6.15
  Change from Baseline in ISS7 at Week 12, LS Mean Diff vs. placebo: −1.29
[7]
  Change from Baseline in ISS7 at Week 12, LS Mean: −8.44
  Change from Baseline in ISS7 at Week 12, LS Mean Diff vs. placebo: −1.60
  Change from Baseline in ISS7 at Week 12, Mean: −9.03
[8]
  Change from Baseline in ISS7 at Week 12, LS Mean: −6.73
  Change from Baseline in ISS7 at Week 12, LS Mean Diff vs. placebo: −3.25
  Change from Baseline in ISS7 at Week 12, Mean: −6.20
Baseline ISS7 score <13
  Change from Baseline in ISS7 at Week 12, LS Mean: −5.14
  Change from Baseline in ISS7 at Week 12, LS Mean Diff vs. placebo: −2.42
  Change from Baseline in ISS7 at Week 12, Mean: −5.28
Baseline ISS7 score ≥13
  Change from Baseline in ISS7 at Week 12, LS Mean: −7.87
  Change from Baseline in ISS7 at Week 12, LS Mean Diff vs. placebo: −2.14
  Change from Baseline in ISS7 at Week 12, Mean: −8.03
[9]
  Change from Baseline in ISS7 at Week 12, LS Mean: −8.29
  Change from Baseline in ISS7 at Week 12, LS Mean Diff vs. placebo: −4.06
  Change from Baseline in ISS7 at Week 12, Mean: −8.52
[10]
  Change from Baseline in ISS7 at Week 12, LS Mean: −7.94
  Change from Baseline in ISS7 at Week 12, LS Mean Diff vs. placebo: −3.43
  Change from Baseline in ISS7 at Week 12, Mean: −7.93
[11]
  Change from Baseline in ISS7 at Week 12, LS Mean: −6.91
  Change from Baseline in ISS7 at Week 12, LS Mean Diff vs. placebo: −0.88
  Change from Baseline in ISS7 at Week 12, Mean: −6.57
[12]
  Change from Baseline in ISS7 at Week 12, LS Mean: −7.17
  Change from Baseline in ISS7 at Week 12, LS Mean Diff vs. placebo: −0.62
  Change from Baseline in ISS7 at Week 12, Mean: −6.20
Baseline UAS7 score <28
  Change from Baseline in ISS7 at Week 12, LS Mean: −5.40
  Change from Baseline in ISS7 at Week 12, LS Mean Diff vs. placebo: −2.22
  Change from Baseline in ISS7 at Week 12, Mean: −6.29
Baseline UAS7 score ≥28
  Change from Baseline in ISS7 at Week 12, LS Mean: −8.64
  Change from Baseline in ISS7 at Week 12, LS Mean Diff vs. placebo: −2.04
  Change from Baseline in ISS7 at Week 12, Mean: −8.21
[13]
  Change from Baseline in ISS7 at Week 12, LS Mean: −6.89
  Change from Baseline in ISS7 at Week 12, LS Mean Diff vs. placebo: 0.14
  Change from Baseline in ISS7 at Week 12, Mean: −8.05
Duration of disease (years) <2
  Change from Baseline in ISS7 at Week 12, LS Mean: −8.54
  Change from Baseline in ISS7 at Week 12, LS Mean Diff vs. placebo: −4.89
  Change from Baseline in ISS7 at Week 12, Mean: −7.53
[14]
  Change from Baseline in ISS7 at Week 12, LS Mean: 5.36
  Change from Baseline in ISS7 at Week 12, LS Mean Diff vs. placebo: 9.04
  Change from Baseline in ISS7 at Week 12, Mean: 1.67
Ethnicity Hispanic
  Change from Baseline in ISS7 at Week 12, LS Mean: −5.19
  Change from Baseline in ISS7 at Week 12, LS Mean Diff vs. placebo: 1.82
  Change from Baseline in ISS7 at Week 12, Mean: −4.42
Ethnicity Non-Hispanic
  Change from Baseline in ISS7 at Week 12, LS Mean: −8.43
  Change from Baseline in ISS7 at Week 12, LS Mean Diff vs. placebo: −3.96
  Change from Baseline in ISS7 at Week 12, Mean: −8.59
Gender Female
  Change from Baseline in ISS7 at Week 12, Mean: −6.99
Gender Male
  Change from Baseline in ISS7 at Week 12, Mean: −8.17
History of angioedema No
  Change from Baseline in ISS7 at Week 12, LS Mean: −7.93
  Change from Baseline in ISS7 at Week 12, LS Mean Diff vs. placebo: −2.59
History of angioedema Yes
  Change from Baseline in ISS7 at Week 12, LS Mean: −6.26
  Change from Baseline in ISS7 at Week 12, LS Mean Diff vs. placebo: −1.01
  Change from Baseline in ISS7 at Week 12, Mean: −4.04
ITT population
  ISS7 at Week 12, Mean: 7.61
  ISS7 at Week 12, Median: 7.00
  ISS7 change from baseline at Week 12, Mean: −8.21
  ISS7 change from baseline at Week 12, Median: −8.00
ITT population, ANCOVA
  ISS7 change from baseline at Week 12, LS Mean: −8.06 points
  ISS7 change from baseline at Week 12, LS Mean Diff vs. placebo: −1.75
ITT population, following one week of treatment
  LS mean change in ISS7 from baseline (see Table 29): −5.23 points
Race All the Others
  Change from Baseline in ISS7 at Week 12, LS Mean: −6.99
